What was measured:
tilapia IgM = experiment: Serum antibody levels of tilapia after immunization with epitope peptides (ELISA); type: in vivo, Nile tilapia (Oreochromis niloticus); conditions: for immunogenicity (serum antibody titer) after single immunization: 20 µg peptide i.m. with Freund's adjuvant, 7-28 days; for immunogenicity (serum IgM antibody levels) after primary and booster immunization: 20 µg peptide i.m., booster after 14 days, 7-42 days
Excerpt: Epitope vaccines usually need to be modified with Freund’s adjuvant (Beyotime) before immunization. Briefly, for a single immunization, the epitope peptide is mixed with an equal dose of complete Freund’s adjuvant and then administered to tilapia. For booster immunization, an equal dose of incomplete Freund’s adjuvant is fused with the epitope peptide before vaccination. For the S1, S3, and S10 epitope vaccine immunization programs, healthy Oreochromis niloticus were divided into six groups (70 fish per group) and vaccinated with 20 µg of peptide vaccine by intramuscular injection. During the 1–4 week immunization period, we collected four fish serum samples weekly for immunological analysis.
In the immunization experiments based on the P30-designed vaccine, healthy Nile tilapia were divided into four groups (70 fish per group) and injected intramuscularly with 20 µg of peptide vaccine to complete the primary immunization. After 14 days, the same dose of vaccine was administered again to complete the booster immunization. Serum and tissue samples were collected from 4 fishes in each group weekly after the primary immunization, for a total of 6 weeks. Furthermore, a PBS control was incorporated into both immunization experiments, and the immunization process was conducted in accordance with the aforementioned methodology.
Serum antibody levels after immunization were determined by indirect ELISA. Specifically, serum samples were diluted appropriately, coated to enzyme-labeled plates, and incubated overnight at 4°C. After being washed three times with PBST buffer, each well was incubated with mouse anti-tilapia IgM mAb (1:5,000) at 37°C for 1 h. After washing, each well was incubated with HRP-conjugated goat anti-mouse IgG (1:5,500) for an additional hour. Color development was carried out as described above.

scFv1 [1] = experiment: Western blot, binding of S3 epitope peptide and mutants to GST-scFv1; parameters: species or system Nile tilapia (Oreochromis niloticus); conditions: PVDF membrane with GST-scFv1 incubated with S3 proteins 37°C 2 h; 6×His tag antibody
Experimental: The PET-N-GST-scFv1 plasmid was constructed using seamless cloning technology (Vazyme), and the protein was obtained through a prokaryotic expression system. The scFv1 protein was purified using GST resin (Beyotime) and stored after lyophilization. Similarly, S3-WT, S3-MuT-^Y386^A, S3-MuT-^R393^A, S3-MuT-^L398^A, and S3-MuT were expressed in prokaryotes using the pET32a plasmid. In the Western blot experiment, after blocking, the PVDF membrane containing GST-scFv1 blots was incubated with each of the five S3 proteins at 37°C for 2 h. Subsequently, the anti-6×His tag mouse mAb was used as the primary antibody, and HRP-conjugated goat anti-mouse IgG was used as the secondary antibody. The ECL color development steps were performed as described above.

TiLV-positive IgM = experiment: Indirect ELISA, affinity of synthetic peptides for TiLV-positive serum; type: binding, tilapia; conditions: peptides 0.1 to 100 μg/mL
Experimental: The indirect ELISA was used to determine the affinity of synthetic peptides for the scFv1 protein and TiLV-positive serum. For the affinity detection of scFv1, the synthetic peptides were diluted at different concentrations (0.01–100 μg/mL) and coated in a microplate. After blocking, scFv1 protein (50 µg/mL) was added and incubated for 2 h at 37°C. In order to reduce the interference of non-specific binding, 50 µg/mL of BSA protein was used as a control for the analysis of binding to the antigenic peptides. Subsequently, 100 µL of 6×His-tag mouse mAb was added to each well and incubated for 1 h, followed by the addition of 100 µL of HRP-conjugated goat anti-mouse IgG for another hour. The color development and OD measurements were performed as described previously. For the affinity detection of serum, 100 µL of positive serum (1:200) was added to each well. The primary antibody was then replaced with mouse anti-tilapia IgM mAb (Frdbio), while all other steps remained unchanged.

scFv1 [2] = experiment: Yeast two-hybrid assay of epitope peptides with scFv1; type: cell-based, Nile tilapia (Oreochromis niloticus); conditions: pGBKT-scFv1 bait, pGADT-peptide; Y2Hgold; 96 h
Experimental: The pGBKT-scFv1 bait plasmid was transformed into Y2Hgold yeast competent cells (WEIDI) and cultured in SD-deficient medium (Beijing Zoman Biotechnology Co., Ltd.) to confirm the absence of self-activation. Subsequently, pGADT-P30, pGADT-S390F, and pGADT-G394K plasmids, along with the pGBKT-scFv1 bait plasmid, were co-transformed into Y2Hgold yeast competent cells. The cells were then cultured on LT-deficient SD and LTHA-deficient SD medium for 48–96 h to observe the expression of the reporter genes. Additionally, the pGADT-T plasmid was co-transformed with the pGBKT-53 and pGBKT-lam plasmids and cultured as positive and negative controls, respectively.

scFv1 [3] = experiment: Cellular co-localization of epitope peptides with scFv1 in HEK293T cells; type: cell-based, Nile tilapia (Oreochromis niloticus); conditions: pEGFP-peptide and pCMV-DsRed-scFv1 in HEK293T, 48 h, confocal
Experimental: The pEGFP-P30, S390F, and G394K plasmids, along with the pCMV-C-DsRed-scFv1 plasmid, were co-transfected into HEK293T cells and cultured for 48 h. Afterward, the cells were fixed with 4% paraformaldehyde, permeabilized, and stained with DPAI (Beyotime), which contains an anti-fluorescence quencher. The expression and co-localization of proteins in cells were observed using confocal fluorescence microscopy.

scFv1 [4] = experiment: Co-immunoprecipitation of epitope peptides with scFv1 in HEK293T cells; type: cell-based, Nile tilapia (Oreochromis niloticus); conditions: for Co-IP with scFv1, His-tag system: His-tagged peptide and Flag-scFv1 co-transfected in HEK293T; for Co-IP with scFv1, GFP tag system: pEGFP-peptide and pCMV-Flag-scFv1 co-transfected in HEK293T, 48 h
Experimental: Protein samples were extracted following the co-transfection of HEK293T cells with plasmids containing P30, S390F, G394K, and scFv1 for 48 h, respectively. Subsequent Co-IP assays were performed using the kit (Beyotime) in accordance with the provided protocol. In brief, TBS-washed protein A + G magnetic beads were incubated with GFP-tagged IgG2a mAb (1:3,000, Proteintech) for 1 h at room temperature. Subsequently, the samples were incubated at 4°C overnight. Following the washing of the beads with cell lysates containing protease inhibitors, protein elution was completed with SDS-PAGE loading buffer (Solarbio) for protein blotting. In the Western blot analysis, the GFP-tagged IgG2a mAb (1:3,000) and the Flag-tagged mouse mAb (1:2,000, Beyotime) were employed to identify the IP and input protein samples, respectively. Furthermore, all samples were characterized with a reference protein antibody (β-actin) as a standard control. Enzyme-labeled secondary antibodies consisted of HRP-conjugated goat anti-mouse IgG (1:4,000). The bands were visualized using the ECL Plus hypersensitive luminescent solution (Solarbio) and photographed with a chemiluminescence program. In addition, the His tag system was also used to verify the interaction between epitope peptides, such as P30 and scFv1. Plasmids encoding P30, S390F, and G394K fused with His tags and the plasmid encoding scFv1 fused with a Flag tag were co-transfected into HEK293T cells, respectively. The His-tag monoclonal antibody (1:500, Proteintech) was bound to A + G magnetic beads and used to detect the interaction, and all other operation steps were performed as described above.

[5] = target: T1, S3-WT epitope peptide (S3 385–400) (tilapia lake virus (TiLV)); experiment: ELISA; conditions: both partners purified
T1 construct: source: synthetic peptide (solid phase, SynthBio)
T1 peptide: GYQLASEIRGTIPLSS

[6] = target: T2, S10-Mut epitope peptide (S10 55–66, alanine mutant) (tilapia lake virus (TiLV)); experiment: ELISA; conditions: both partners purified
T2 construct: source: synthetic peptide (solid phase, SynthBio)
T2 peptide: NIEAGAAVALEM

[7] = target: T3, S1-Mut epitope peptide (S1 231–250, alanine mutant) (tilapia lake virus (TiLV)); experiment: ELISA; conditions: both partners purified
T3 construct: source: synthetic peptide (solid phase, SynthBio)
T3 peptide: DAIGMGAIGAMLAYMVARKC

[8] = target: T4, S1-WT epitope peptide (S1 231–250) (tilapia lake virus (TiLV)); experiment: ELISA; conditions: both partners purified
T4 construct: source: synthetic peptide (solid phase, SynthBio)
T4 peptide: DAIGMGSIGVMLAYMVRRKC

[9] = target: T5, S10-WT epitope peptide (S10 55–66) (tilapia lake virus (TiLV)); experiment: ELISA; conditions: both partners purified
T5 construct: source: synthetic peptide (solid phase, SynthBio)
T5 peptide: NIEWGDEVDLEM

[10] = target: T6, S390F epitope peptide (P30 with S390F), synthetic (tilapia lake virus (TiLV), S390F (stands in the printed letters)); experiment: SPR; conditions: both partners purified
T6 construct: source: synthetic peptide (solid phase, SynthBio)
T6 peptide: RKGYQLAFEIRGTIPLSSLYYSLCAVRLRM

With DAIGMGAIGAMLAYMVARKC [S1MuT] the “immunogenicity (serum antibody titer) after single immunization” value (shortened to “immunogenicity (serum antibody titer)”) (tilapia IgM) was “lower antibody stimulation level”.

DAIGMGSIGVMLAYMVRRKC [S1WT] was tested, and the “immunogenicity (serum antibody titer)” value (tilapia IgM) was “robust immune responses”.

With GAQLASEIAGTIPASS [S3MuT] the “immunogenicity (serum antibody titer)” value (tilapia IgM) was “lower antibody stimulation level” and the “binding to GST-scFv1 by Western blot” value (scFv1 [1]) was “did not show the protein”.

With NIEAGAAVALEM [S10MuT] the “immunogenicity (serum antibody titer)” value (tilapia IgM) was “lower antibody stimulation level”.

For NIEWGDEVDLEM [S10WT], the “immunogenicity (serum antibody titer)” value (tilapia IgM) was “robust immune responses”.

In the case of RKGYQLASEIRGFIPLSSLYYSLCAVRLRM [T395F], the “immunogenicity (serum IgM antibody levels) after primary and booster immunization” value (tilapia IgM) is reported as “failed to show significantly improved immunogenicity” and the “affinity to TiLV-specific positive serum” value (TiLV-positive IgM) is reported as “did not show improved affinity compared to P30”.

For RKGYQLASEIRGTIPLSSLYYSLCAVRLRM [P30], the “yeast two-hybrid growth on LTHA-deficient SD medium” value (scFv1 [2]) was “exhibited plaque growth”, the “co-localization with scFv1 in cells” value (scFv1 [3]) was “co-localized with the antibody” and the “Co-IP with scFv1, His-tag system” value (scFv1 [4]) was “showed interactions with scFv1”. The “Co-IP with scFv1, GFP tag system” value (scFv1 [4]) was “able to bind to the antibody”.

With RKGYQLASEIRGTIPLSSLYYYLCAVRLRM [S404Y] the “immunogenicity (serum IgM antibody levels) after primary and booster immunization” value (tilapia IgM) was “failed to show significantly improved immunogenicity” and the “affinity to TiLV-specific positive serum” value (TiLV-positive IgM) was “did not show improved affinity compared to P30”.

With RKGYQLASEIRKTIPLSSLYYSLCAVRLRM [G394K] the “yeast two-hybrid growth on LTHA-deficient SD medium” value (scFv1 [2]) was “did not exhibit any growth”, the “co-localization with scFv1 in cells” value (scFv1 [3]) was “failed to bind to the antibody” and the “Co-IP with scFv1, His-tag system” value (scFv1 [4]) was “did not”. For the same molecule, the “Co-IP with scFv1, GFP tag system” value (scFv1 [4]) was “negative in the Co-IP reaction”.

B1: scFv1, prokaryote-expressed (pET32a-scFv1) (scFv)
scFv: MSHRLTCAYSGFSSDIHAVWVRQAAGKGLEWIAYISDSSAYIYYSQSVRGRFTISRDNSRKQVYLQMNSLTTEDSAVYYCTREGSGFAFDYWGKGTGGGGSGGGGSGGGGSVTISATGSSNIGADLSWYLQKTGETPKLLIYKASTRSSGTPPRFSGSTSGSQYTLTISGVQAEDAGDYYCLGDHGGGALTFGGGTK
notes: also called antibody scFv1; source: E. coli BL21, prokaryotic expression (pET32a-scFv1); freeze-dried, dissolved in PBS
B1: binds [5]; binds [6]; binds [7]. For the same molecule, the binding result [8] was “binds”, the binding result [9] was “binds” and the Kd [10] was 573 nM.

B2: scFv1, expressed in CHO cells (pcDNA3.1-scFv1) (scFv)
scFv: MSHRLTCAYSGFSSDIHAVWVRQAAGKGLEWIAYISDSSAYIYYSQSVRGRFTISRDNSRKQVYLQMNSLTTEDSAVYYCTREGSGFAFDYWGKGTGGGGSGGGGSGGGGSVTISATGSSNIGADLSWYLQKTGETPKLLIYKASTRSSGTPPRFSGSTSGSQYTLTISGVQAEDAGDYYCLGDHGGGALTFGGGTK
notes: also called eukaryote-expressed scFv1; source: CHO cells, eukaryotic expression (pcDNA3.1-scFv1)
B2: binds [5]; binds [6]; binds [7]. B2: binds [8]; binds [9].

— PMC12724136, “Design of antibody structure-guided epitope vaccines in silico to induce potent immune responses against emerging viruses” (Journal of Virology, 2025)
